Laboratory results: patent US12714700B2 (priority 2017, dated 2026)

System: ob/ob mice
Conditions: cohort 2 (HFD conditioning, then 50 mg/kg), relative to untreated controls

For `N#Cc1ccc2nnc(C(=O)N3CCC(c4cccc(F)c4C(F)(F)F)CC3)n2c1` [Compound 2, 3-(4-(3-fluoro-2-(trifluoromethyl)phenyl)piperidine-1-carbonyl)-[1,2,4]triazolo[4,3-a]pyridine-6-carbonitrile], the NASH fibrosis scores was “reduction” and the “amount of bridging fibrosis” value was “decrease”.
